This note sets out measurements from patent US20250241901A1, “ACTIVATION OF MNRR1 / CHCHD2 AS A THERAPEUTIC TARGET FOR MITOCHONDRIA ASSOCIATED DISORDERS” (Wayne State University, priority 2024, published 2025).

Holding throughout (format): cell-based, human
One assay relates to TNF transcription. As to the kind of experiment: TNF transcript levels in LPS-treated HTR8 cells (real-time PCR). As for the experimental part: FIGS. 1A-1D. Nitazoxanide's anti-inflammatory effects are via transcriptional activation of MNRR1. (FIG. 1A) Results of a screen of ˜2400 FDA-approved drugs and natural compounds identified to transcriptionally activate (>1), inhibit (<1), or not affect (=1) MNRR1. Each circle represents one drug and the MNRR1 activator (nitazoxanide (N)) has been highlighted in green. (FIG. 1B) Equal numbers of HTR cells overexpressing the MNRR1-luciferase reporter were plated on a 96 well plate and treated with increasing amounts of nitazoxanide or vehicle (DMSO) for 24 h. EC50 was calculated using the activation of MNRR1 reporter relative to vehicle treated cells using the Quest Graph^TM EC50 Calculator. (FIG. 1C) TNF transcript levels were measured in human placental cells. Actin was used as a housekeeping gene for normalization. Abbreviations: WT, MNRR1-WT; MNRR1-KO, knockout of MNRR1; C, control (water); LPS, lipopolysaccharide; N, nitazoxanide; KO+WT-MNRR1, knockout cells +MNRR1−WT overexpression. n=4 biological replicates; significance: *, p-value<0.05; ns is non-significant. […]
Real-time polymerase chain reaction: Total cellular RNA was extracted from mouse placental tissues or HTR8 cells by using a RNeasy Plus Mini Kit (Qiagen, Germantown, MD, USA), according to the manufacturer's instructions. […] Transcript levels were measured by real-time PCR by using SYBR green on an ABI 7500 system. […]

The test system of a further assay is MELAS cybrid cells. As to the kind of experiment: Mitophagy markers in MELAS cybrid cells (immunoblot). The settings on record: 10 μM, 48 h. As for the experimental part:
FIGS. 7A-7E: MNRR1 activation by tizoxanide enhances mtDNA biogenesis and mitophagy to shift heteroplasmy in MELAS cells. FIG. 7A: Oxygen consumption measured from MELAS cybrid cells treated with vehicle (DMSO) or tizoxanide (10 μM) for 48 h (n=4 biological replicates, error bars represent SE). FIG. 7B: Haelll restriction enzyme digestion of a PCR-amplified fragment of mtDNA harboring the m.3243A>G mutation from DW7 cells treated with vehicle (DMSO) or tizoxanide (10 μM) for 144 h. […] FIG. 7C: Genes identified using qPCR of MELAS cybrid cells stably overexpressing EV or MNRR1. FIG. 7D: MtDNA levels are shown relative to nuclear DNA (nDNA) (GAPDH) (n=5 biological replicates, error bars represent SE). FIG. 7E: Equal amounts of MELAS cybrid cell lysates, treated with vehicle (DMSO) or tizoxanide (10 μM) for 48 h, were separated on an SDS-PAGE gel and probed for PGC1a, PINK1, LC3 A/B, MNRR1, and Tubulin. […]
Immunoblotting: Immunoblotting was performed as described previously. […] The clear supernatants were transferred to new tubes and quantified using the Bradford reagent with BSA as standard (BioRad, Hercules. CA). […] For detection after immunoblotting, the SuperSignal™ West Pico PLUS substrate (ThermoFisher, Waltham, MA) was used to generate chemiluminescence signal, which was detected with X-Ray film (RadTech, Vassar, MI).
Background: In western blotting, separated proteins are transferred to a membrane and probed.

Assay [1] relates to mtDNA harboring the m.3243A>G mutation. As to the kind of experiment: Heteroplasmy by Haelll digestion of mtDNA fragment, DW7 cells. The settings on record: 10 μM, 144 h. As for the experimental part:
FIGS. 7A-7E: MNRR1 activation by tizoxanide enhances mtDNA biogenesis and mitophagy to shift heteroplasmy in MELAS cells. FIG. 7A: Oxygen consumption measured from MELAS cybrid cells treated with vehicle (DMSO) or tizoxanide (10 μM) for 48 h (n=4 biological replicates, error bars represent SE). FIG. 7B: Haelll restriction enzyme digestion of a PCR-amplified fragment of mtDNA harboring the m.3243A>G mutation from DW7 cells treated with vehicle (DMSO) or tizoxanide (10 μM) for 144 h. […] FIG. 7C: Genes identified using qPCR of MELAS cybrid cells stably overexpressing EV or MNRR1. FIG. 7D: MtDNA levels are shown relative to nuclear DNA (nDNA) (GAPDH) (n=5 biological replicates, error bars represent SE). FIG. 7E: Equal amounts of MELAS cybrid cell lysates, treated with vehicle (DMSO) or tizoxanide (10 μM) for 48 h, were separated on an SDS-PAGE gel and probed for PGC1a, PINK1, LC3 A/B, MNRR1, and Tubulin. FIG. 7F: Equal numbers of MELAS cells were treated as in FIG. 7E, separated on an SDS-PAGE gel, and probed for phospho-ubiquitin (S65) levels. Tubulin was probed as a loading control. In all figures, * indicates p<0.05, ** indicates p<0.005.
Restriction Enzyme Digestion: DNA was analyzed for the MELAS mutation as described previously. […]

With `CC(=O)Oc1ccccc1C(=O)Nc1ncc([N+](=O)[O-])s1` [nitazoxanide, Nitazoxanide], the “LPS-induced activation of TNF transcription” value in the assay on TNF transcription (HTR8 cells, MNRR1-WT) is “reduced to control levels in an MNRR1-dependent fashion”. In addition, the “anti-inflammatory benefit (TNF transcript) in MNRR1 knockout cells” value in the assay with TNF transcription (MNRR1 knockout cells) is reported as “no nitazoxanide-mediated benefit”.

In the case of `O=C(Nc1ncc([N+](=O)[O-])s1)c1ccccc1O` [tizoxanide, Tizoxanide], the “mitophagy (PINK1, LC3A, LC3B, pSer-65 ubiquitin)” value with MELAS cybrid cells is given as “Increased mitophagy”. In addition, the “increase in proportion of WT mtDNA” value in assay [1] was “about 14%”.
